System: triple negative breast cancer (TNBC)
Assay: Neoadjuvant cisplatin cohort, pathologic response in triple negative breast cancer
Assay type: in vivo, human
Conditions: for Pathologic complete response (pCR = yes), % response / Pathologic response (PR = yes), % response: secondary analysis, n=51
Method: Analysis of a neoadjuvant TNBC cohort treated with cisplatin was examined relative to the relationship between all three HRD scores and response. All p values were from logistic regression models with response to cisplatin as the dependent variable.
HR Deficiency status was determined for 62 of the 70 samples (70 individual patients) received from a cisplatin cohort (8 had insufficient tumors for analysis). Of these, 31 (50%) were HR deficient, 22 (35%) were non-HR deficient, and 9 (15%) were undetermined. FIG. 15 provides a histogram showing the distribution of HRD scores in the cohort. […] were considered to have high HRD (see also, Example 5). […] Pathologic complete response (pCR), which is associated with long-term survival, was defined as a residual cancer burden (RBC) of 0 and observed in 11/59 (19%) samples. […] These overall response rates correlated with monotherapy expectations.
Statistical analyses followed a predefined Statistical Analysis Plan (SAP), which included primary, secondary, and BRCA wild-type subset analyses.

N.N.[Cl][Pt][Cl] [cisplatin]
Pathologic complete response (pCR = yes), % response (BRCA Mutant): 3 (33.3%) | Pathologic response (PR = yes), % response (BRCA Mutant): 5 (55.6%) | Pathologic complete response (pCR = yes), % response (BRCA Non-mutant): 5 (11.9%) | Pathologic response (PR = yes), % response (BRCA Non-mutant): 13 (31.0%) | Pathologic complete response (pCR), residual cancer burden of 0 (whole cisplatin cohort, 11/59 samples): 19% | Pathologic response (PR), residual cancer burden of 0 or 1 (whole cisplatin cohort, 22/59 samples): 37%

Source: patent US12221656B2, “Methods and materials for assessing homologous recombination deficiency” (Myriad Genetics, Inc., priority 2014, dated 2025)
